Results published in US6646008B1, “Treatment of disease states which result from neoplastic cell proliferation using PPAR-γ activators and compositions useful therefor” (The Salk Institute for Biological Studies, priority 1996, dated 2003).

Experiments:
HL-60 leukemia cells = experiment: CD14 differentiation antigen flow cytometry in HL-60 cells; format: cell-based; conditions: 5 days, 10 nM AM580, 100 nM LG268, 3 μM 15-deoxy-Δ12,14-prostaglandin-J2
Experimental: (§1) HL-60 and THP-1 leukemia cells were seeded at a ensity of 2×10^5 cells/ml and cultured in RPMI containing 10% charcoal-stripped fetal calf serum. Cells were treated with either vehicle alone, or 10 nM AM580, 100 nM LG268, or 3 μM 15-deoxy-Δ12,14-prostaglandin-J2. After 5 days, cells were incubated with monoclonal antibody to the monocyte-specific differentiation antigen CD14, and analyzed by flow cytometry using a Becton Dickinson FACScan.

HL-60 cells [1] = experiment: Growth of HL-60 cells in the presence of ligands; format: cell-based; conditions: 100 nM 9-cis RA, 100 nM LG268, 3 μM PG-J2, cell numbers after 3, 5 or 7 days
Experimental: (§2) HL-60 cells were plated at a density of 2×10^5 cells/ml and were treated with:
(§3) 100 nM 9-cis retinoic acid (9-cis RA; which is both RAR and RXR active),
(§4) 100 nM LG268 (which is RXR selective),
(§5) 3 μM prostaglandin J2 (PG-J2; which is PPARγ active), or
(§6) a combination of 100 nM of LG268 and 3 μM of PG-J2.
Cell numbers were determined after 3, 5 or 7 days of culture, as illustrated in FIG. 1.

HL-60 cells [2] = experiment: Cell cycle analysis of HL-60 cells by flow cytometry (DNA content); format: cell-based; conditions: for Cell Cycle Phase, % G1 / Cell Cycle Phase, % G2 / Cell Cycle Phase, % S: day 3, 100 nM 9-cis RA, 100 nM LG268, 3 μM PG-J2
Experimental: as §2, §3, §4, §5, §6
Cell cycle analysis was carried out on day 3 using standard DNA content determination by flow cytometry.

LS175 cells = experiment: Differentiation of primary liposarcoma cell strain LS175; format: cell-based, human; conditions: 10 μM pioglitazone, 7 days
Experimental: Liposarcomas have presumably acquired one or more genetic defects that interfere with the course of normal adipocyte development. The observation that PPARγ is expressed consistently in these tumors raised the possibility that the malignant cells might be forced to complete the differentiation program by maximally iactivating the PPARγ pathway. To address this possibility, primary cells isolated from three human liposarcomas were cultured in vitro. Primary cell strains LS857 and LS175 were derived from well differentiated liposarcomas and LS707 was derived from an intermediate grade myxoid/round cell liposarcoma (see Table 5). High grade pleomorphic liposarcoma cells could not be expanded to sufficient numbers to permit studies of differentiation. A primary leiomyosarcoma cell line LM203 was cultured as a control. To confirm that these cultures consisted of malignant tumor-derived cells, cytogenetic analysis was performed.
When cultured in the presence of fetal bovine serum and insulin, conditions permissive for adipocyte differentiation, all three cell lines maintain a fibroblastic morphology. LS175 cells contained small amounts of stainable lipid under these conditions. […] The degree of morphologically recognizable differentiation varied from 40% in the LS857 cells to 75% in the LS175 cells. […]

NIH-vector cells = experiment: Adipocyte differentiation (oil red O lipid staining) of NIH-vector cells; format: cell-based; conditions: for % lipid containing cells: NIH (vector) cells, treated 7 days at confluence, 1 μM pioglitazone, 50 nM LG268, or 5 μM thiazolidinedione and 50 nM LG268, oil red O after four more days, range over three experiments
Experimental: Simultaneous exposure of competent cells to both PPARγ and RXR-specific ligand was investigated to determine if such combination might provide a stronger adipogenic signal than a PPARγ ligand alone. […] It has previously been shown that wild-type NIH-3T3 cells express RXRα but not PPARγ. NIH-vector and NIH-PPARγ cells were cultured as described in the Examples. […] After an additional four days of culture, cells were fixed and stained with oil red O. Data are presented in Table 1 as the range of morphologically recognizable differentiation observed for each line over three separate experiments.

NIH-PPARγ cells = experiment: Adipocyte differentiation (oil red O lipid staining) of NIH-3T3 fibroblasts expressing PPARγ from a retroviral vector; format: cell-based; conditions: for % lipid containing cells: NIH-PPARγ cells, treated 7 days at confluence, 1 μM pioglitazone, 50 nM LG268, or 5 μM thiazolidinedione and 50 nM LG268, oil red O after four more days, range over three experiments
Experimental: Simultaneous exposure of competent cells to both PPARγ and RXR-specific ligand was investigated to determine if such combination might provide a stronger adipogenic signal than a PPARγ ligand alone. […] NIH-vector and NIH-PPARγ cells were cultured as described in the Examples.

LS857 cells = experiment: Differentiation of primary liposarcoma cell strain LS857 (lipid accumulation, morphology); format: cell-based, human; conditions: 7 days
THP-1 leukemia cells = experiment: CD14 differentiation antigen flow cytometry in THP-1 cells; format: cell-based; conditions: 5 days, 100 nM LG268, 3 μM 15-deoxy-Δ12,14-prostaglandin-J2
Experimental: as §1

| Molecule | median fluorescence (CD14) (HL-60 leukemia cells) | effect on cell growth (HL-60 cells [1]) | effect on cell cycle progression (HL-60 cells [2]; day 3) | Cell Cycle Phase, % G1 (HL-60 cells [2]) | Cell Cycle Phase, % G2 (HL-60 cells [2]) | Cell Cycle Phase, % S (HL-60 cells [2]) | degree of morphologically recognizable differentiation (LS175 cells) | % lipid containing cells (NIH-vector cells) | % lipid containing cells (NIH-PPARγ cells) | degree of morphologically recognizable differentiation (LS857 cells; 10 μM pioglitazone) | adipogenic effect (NIH-vector cells; NIH-vector cells) | adipocyte differentiation (NIH-PPARγ cells; confluent NIH-PPARγ cells, 7 days, 50 nM LG268 and/or 1 μM pioglitazone) | adipocyte differentiation (LS857 cells; 50 nM LG268, 10 μM pioglitazone) | lipid accumulation, oil red O, macroscopic view (LS857 cells; 5 μM thiazolidinedione (BRL 49653 or pioglitazone), 50 nM LG268, stained after four more days) | median fluorescence (CD14) (THP-1 leukemia cells) |
| --- | --- | --- | --- | --- | --- | --- | --- | --- | --- | --- | --- | --- | --- | --- | --- |
| AM580 | 26 | – | – | – | – | – | – | – | – | – | – | – | – | – | – |
| CC1=C(/C=C/C(C)=C\C=C\C(C)=C\C(=O)O)C(C)(C)CCC1 [9-cis RA, 9-cis retinoic acid] | – | inhibit cell growth | inhibits cell cycle progression | 70.5% | 10.2% | 19.2% | – | – | – | – | – | – | – | – | – |
| CCc1ccc(CCOc2ccc(CC3SC(=O)NC3=O)cc2)nc1 (stereo not shown) [pioglitazone] | – | – | – | – | – | – | 75% | 0% | 60-70% | 40% | – | – | – | – | – |
| Cc1cc2c(cc1C1(c3ccc(C(=O)O)cn3)CC1)C(C)(C)CCC2(C)C [LG268, 6-[1-(3,5,5,8,8-pentamethyl-5,6,7,8-tetrahydronaphthalen-2-yl)cyclopropyl]nicotinic acid] | 138 | only a marginal ability to promote cell differentiation | – | 54.5% | 14.4% | 31.1% | – | 0% | 50-65% | – | no effect | significant stimulation of adipocyte differentiation | significant degree of adipocyte differentiation | significant lipid accumulation | 18 |
